Source: patent US9650361B2, “N-(pyridin-2-yl)pyrimidin-4-amine derivatives containing a sulfoximine group” (BAYER PHARAM AKTIENGESELLSCHAFT, priority 2012, dated 2017)
Where two headings read alike, the source gives them in different places.

Experiments:
CDK9/CycT1 = molecular target: T1, CDK9/CycT1 (Homo sapiens, UniProt P50750); assay: CDK9/CycT1 kinase assay (Method 1a); type: biochemical; conditions: 10 μM ATP
T1 construct: Recombinant full-length His-tagged human CDK9 and CycT1; His; purchased Invitrogen PV4131; host or cells: insect cells
From the text: 1a. CDK9/CycT1 Kinase Assay:
CDK9/CycT1-inhibitory activity of compounds of the present invention was quantified employing the CDK9/CycT1 TR-FRET assay as described in the following paragraphs:
Recombinant full-length His-tagged human CDK9 and CycT1, expressed in insect cells and purified by Ni-NTA affinity chromatography, were purchased from Invitrogen (Cat. No PV4131). As substrate for the kinase reaction biotinylated peptide biotin-Ttds-YISPLKSPYKISEG (C-terminus in amid form) was used which can be purchased e.g. form the company JERINI Peptide Technologies (Berlin, Germany) For the assay 50 nl of a 100 fold concentrated solution of the test compound in DMSO was pipetted into a black low volume 384 well microtiter plate (Greiner Bio-One, Frickenhausen, Germany), 2 μl of a solution of CDK9/CycT1 in aqueous assay buffer [50 mM Tris/HCl pH 8.0, 10 mM MgCl2, 1.0 mM dithiothreitol, 0.1 mM sodium ortho-vanadate, 0.01% (v/v) Nonidet-P40 (Sigma)] were added and the mixture was incubated for 15 min at 22° C. to allow pre-binding of the test compounds to the enzyme before the start of the kinase reaction. Then the kinase reaction was started by the addition of 3 μl of a solution of adenosine-tri-phosphate (ATP, 16.7 μM=>final conc. in the 5 μl assay volume is 10 μM) and substrate (1.67 μM=>final conc. in the 5 μl assay volume is 1 μM) in assay buffer and the resulting mixture was incubated for a reaction time of 25 min at 22° C. The concentration of CDK9/CycT1 was adjusted depending of the activity of the enzyme lot and was chosen appropriate to have the assay in the linear range, typical concentrations were in the range of 1 μg/ml. The reaction was stopped by the addition of 5 μl of a solution of TR-FRET detection reagents (0.2 μM streptavidine-XL665 [Cisbio Bioassays, Codolet, France] and 1 nM anti-RB(pSer807/pSer811)-antibody from BD Pharmingen [#558389] and 1.2 nM LANCE EU-W1024 labeled anti-mouse IgG antibody [Perkin-Elmer, product no. AD0077]) in an aqueous EDTA-solution (100 mM EDTA, 0.2% (w/v) bovine serum albumin in 100 mM HEPES/NaOH pH 7.0).
The resulting mixture was incubated 1 h at 22° C. to allow the formation of complex between the phosphorylated biotinylated peptide and the detection reagents. Subsequently the amount of phosphorylated substrate was evaluated by measurement of the resonance energy transfer from the Eu-chelate to the streptavidine-XL. Therefore, the fluorescence emissions at 620 nm and 665 nm after excitation at 350 nm was measured in a HTRF reader, e.g. a Rubystar (BMG Labtechnologies, Offenburg, Germany) or a Viewlux (Perkin-Elmer). The ratio of the emissions at 665 nm and at […] was taken as the measure for the amount of phosphorylated substrate. The data were normalised (enzyme reaction without inhibitor=0% inhibition, all other assay components but no enzyme=100% inhibition).

A2780 cells = assay: Proliferation assay, A2780 (Method 3); type: cell-based, human; conditions: 4 days, crystal violet, read-out: Inhibition of A2780 cell proliferation IC50
Experimental: Cultivated tumour cells (HeLa, human cervical tumour cells, ATCC CCL-2; NCI-H460, human non-small cell lung carcinoma cells, ATCC HTB-177; A2780, human ovarian carcinoma cells, ECACC #93112519; DU 145, hormone-independent human prostate carcinoma cells, ATCC HTB-81; HeLa-MaTu-ADR, multidrug-resistant human cervical carcinoma cells, EPO-GmbH Berlin; Caco-2, human colorectal carcinoma cells, ATCC HTB-37; B16F10, mouse melanoma cells, ATCC CRL-6475) were plated at a density of 5,000 cells/well (DU145, HeLa-MaTu-ADR), 3,000 cells/well (NCI-H460, HeLa), 2,500 cells/well (A2780), 1,500 cells/well (Caco-2), or 1,000 cells/well (B16F10) in a 96-well multititer plate in 200 μL of their respective growth medium supplemented 10% fetal calf serum. After 24 hours, the cells of one plate (zero-point plate) were stained with crystal violet (see below), while the medium of the other plates was replaced by fresh culture medium (200 μl), to which the test substances were added in various concentrations (0 μM, as well as in the range of 0.001-10 μM; the final concentration of the solvent dimethyl sulfoxide was 0.5%). The cells were incubated for 4 days in the presence of test substances. Cell proliferation was determined by staining the cells with crystal violet: the cells were fixed by adding 20 μl/measuring point of an 11% glutaric aldehyde solution for 15 minutes at room temperature. After three washing cycles of the fixed cells with water, the plates were dried at room temperature. The cells were stained by adding 100 μl/measuring point of a 0.1% crystal violet solution (pH 3.0). After three washing cycles of the stained cells with water, the plates were dried at room temperature. The dye was dissolved by adding 100 μl/measuring point of a 10% acetic acid solution. The extinction was determined by photometry at a wavelength of 595 nm. The change of cell number, in percent, was calculated by normalization of the measured values to the extinction values of the zero-point plate (=0%) and the extinction of the untreated (0 μm) cells (=100%). The IC50 values (inhibitory concentration at 50% of maximal effect) were determined by means of a 4 parameter fit.

T1 sequence (P50750 whole entry): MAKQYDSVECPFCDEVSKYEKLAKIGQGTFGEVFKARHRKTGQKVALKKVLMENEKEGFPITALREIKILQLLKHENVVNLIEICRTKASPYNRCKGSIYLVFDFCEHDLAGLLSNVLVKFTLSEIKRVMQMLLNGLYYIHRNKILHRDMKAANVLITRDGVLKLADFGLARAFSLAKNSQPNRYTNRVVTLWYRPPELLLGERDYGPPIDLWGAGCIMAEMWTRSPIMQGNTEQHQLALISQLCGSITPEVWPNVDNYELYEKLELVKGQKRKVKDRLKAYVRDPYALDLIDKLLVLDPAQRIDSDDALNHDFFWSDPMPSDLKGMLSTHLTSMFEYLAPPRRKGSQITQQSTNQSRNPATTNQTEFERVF
T1 sequence (O60563 whole entry partner): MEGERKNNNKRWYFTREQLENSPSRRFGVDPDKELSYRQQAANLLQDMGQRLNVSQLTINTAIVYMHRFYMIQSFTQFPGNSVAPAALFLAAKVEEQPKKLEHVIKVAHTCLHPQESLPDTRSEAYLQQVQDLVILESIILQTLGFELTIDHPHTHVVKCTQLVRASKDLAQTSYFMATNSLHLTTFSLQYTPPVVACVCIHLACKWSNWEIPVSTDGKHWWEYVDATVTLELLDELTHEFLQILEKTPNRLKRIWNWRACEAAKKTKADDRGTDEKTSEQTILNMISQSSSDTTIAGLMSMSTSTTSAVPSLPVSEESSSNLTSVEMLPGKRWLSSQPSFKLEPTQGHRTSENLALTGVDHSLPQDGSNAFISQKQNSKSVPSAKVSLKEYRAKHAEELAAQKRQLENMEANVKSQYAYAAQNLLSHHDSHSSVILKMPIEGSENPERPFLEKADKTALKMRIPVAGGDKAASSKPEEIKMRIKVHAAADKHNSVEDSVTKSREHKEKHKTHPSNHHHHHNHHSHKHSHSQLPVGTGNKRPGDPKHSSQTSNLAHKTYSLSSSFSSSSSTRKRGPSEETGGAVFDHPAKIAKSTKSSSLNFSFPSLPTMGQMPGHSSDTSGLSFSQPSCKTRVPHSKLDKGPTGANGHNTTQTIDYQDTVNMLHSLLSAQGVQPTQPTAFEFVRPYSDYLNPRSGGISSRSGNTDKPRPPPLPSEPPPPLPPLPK

SMILES | IC50 (CDK9/CycT1) [nM] | IC50 (A2780 cells; Homo sapiens, A2780, 96 h) [nM] | IC50 (A2780 cells) [nM]
COc1cc(F)ccc1-c1cc(Nc2cc(CS(C)(=N)=O)ccn2)ncn1 (racemic) [Example 1, (rac)-6-(4-Fluoro-2-methoxyphenyl)-N-{4-[(S-methylsulfonimidoyl)methyl]pyridin-2-yl}pyrimidin-4-amine] | 5 | 60 | –
COc1cc(F)ccc1-c1cc(Nc2cc(CS(C)(=N)=O)cc(Cl)n2)ncn1 (racemic) [Example 4, (rac)-N-{6-Chloro-4-[(S-methylsulfonimidoyl)methyl]pyridin-2-yl}-6-(4-fluoro-2-methoxyphenyl)pyrimidin-4-amine] | 4 | 62 | –
COc1cc(F)ccc1-c1cc(Nc2cc(CS(C)(=N)=O)cc(C(F)(F)F)n2)ncn1 (racemic) [Example 10, (rac)-6-(4-Fluoro-2-methoxyphenyl)-N-{4-[(S-methylsulfonimidoyl)methyl]-6-(trifluoromethyl)pyridin-2-yl}pyrimidin-4-amine] | 5 | 32 | –
COc1cc(F)ccc1-c1cc(Nc2cc(CS(C)(=N)=O)ccn2)ncn1 (single isomer, unassigned) [Example 2, 6-(4-Fluoro-2-methoxyphenyl)-N-{4-[(S-methylsulfonimidoyl)methyl]pyridin-2-yl}pyrimidin-4-amine] | 9 | 193 | –
COc1cc(F)ccc1-c1cc(Nc2cc(CS(C)(=N)=O)ccn2)ncn1 (single isomer, unassigned) [Example 3, 6-(4-Fluoro-2-methoxyphenyl)-N-{4-[(S-methylsulfonimidoyl)methyl]pyridin-2-yl}pyrimidin-4-amine] | 4 | – | 126
COc1cc(F)ccc1-c1cc(Nc2cc(CS(C)(=N)=O)cc(Cl)n2)ncn1 (single isomer, unassigned) [Example 5, N-{6-Chloro-4-[(S-methylsulfonimidoyl)methyl]pyridin-2-yl}-6-(4-fluoro-2-methoxyphenyl)pyrimidin-4-amine] | 5 | 34 | –
COc1cc(F)ccc1-c1cc(Nc2cc(CS(C)(=N)=O)cc(Cl)n2)ncn1 (single isomer, unassigned) [Example 6, N-{6-Chloro-4-[(S-methylsulfonimidoyl)methyl]pyridin-2-yl}-6-(4-fluoro-2-methoxyphenyl)pyrimidin-4-amine] | 4 | – | 39

Other lines, results leading:

IC50 (CDK9/CycT1) [nM] | IC50 (A2780 cells; Homo sapiens, A2780, 96 h) [nM] | IC50 (A2780 cells) [nM] | SMILES
5 | 35 | – | COc1cc(F)ccc1-c1cc(Nc2cc(CS(C)(=N)=O)cc(C)n2)ncn1 (racemic) [Example 7, (rac)-6-(4-Fluoro-2-methoxyphenyl)-N-{6-methyl-4-[(S-methylsulfonimidoyl)methyl]pyridin-2-yl}pyrimidin-4-amine]
4 | 36 | – | COc1cc(F)ccc1-c1cc(Nc2cc(CS(C)(=N)=O)cc(C)n2)ncn1 (single isomer, unassigned) [Example 8, 6-(4-Fluoro-2-methoxyphenyl)-N-{6-methyl-4-[(S-methylsulfonimidoyl)methyl]pyridin-2-yl}pyrimidin-4-amine]
4 | – | 39 | COc1cc(F)ccc1-c1cc(Nc2cc(CS(C)(=N)=O)cc(C)n2)ncn1 (single isomer, unassigned) [Example 9, 6-(4-Fluoro-2-methoxyphenyl)-N-{6-methyl-4-[(S-methylsulfonimidoyl)methyl]pyridin-2-yl}pyrimidin-4-amine]
